Assay results published in US4851536A, “Cyclohexylquinolines as inhibitors of interleukin 1” (American Home Products Corporation, priority 1988, dated 1989).

Legend:
[1] = tested on: IL 1-induced release of neutral protease from rabbit articular chondrocytes; assay: Inhibition of IL 1-induced release of neutral protease from rabbit articular chondrocytes (% inhibition of protease secretion, azocoll degradation); assay type: cell-based, rabbit (male New Zealand White); settings: Oryctolagus cuniculus, Chondrocyte, test compound 10 minutes prior to IL 1, 24 hours after IL 1 stimulation
[2] = tested on: IL 1-induced release of neutral protease from rabbit articular chondrocytes; assay: as above; assay type: cell-based, rabbit (male New Zealand White); settings: Oryctolagus cuniculus, Chondrocyte, test compound 10 minutes prior to IL 1, 24 hours after IL 1 stimulation; remark: listed apart in the source
Protocol: The ability of the compounds of the inventions to inhibit interleukin 1 is measured by the ability of the test compounds to inhibit the IL 1-induced release of neutral protease from rabbit articular chondrocytes.
This assay is carried out as follows:
Isolation of rabbit chondrocytes:
Male New Zealand White rabbits are anesthetized with 50 mg/kg of ketamine (i.m.) and killed by an intracardiac injection of 3 mls of Nembutal. The knee joints of both legs are resected and the articular surfaces are exposed. Cartilage slices are obtained using a scalpel and are placed in a tissue culture dish (100 mm diameter) containing 10 mls of Hank's balanced salt solution (HBSS). The chondrocytes within the cartilage slices are then liberated by a series of enzyme digestions. The slices are incubated for 10 minutes at 37° C. in 0.05% hyaluronidase (Sigma H-3884), rinsed with HBSS and incubated with 0.2% trypsin (Sigma T-2395) for 10 minutes at 37° C. The slices are rinsed again and incubated for 10 minutes at 37° C. with 1.2% collagenase (Sigma C-5138). The slices are then rinsed again with HBSS and resuspended in 10 ml of Ham's F-12 medium containing 10% fetal bovine calf serum (FCS) and 0.2% collagenase and incubated overnight at 37° C. in a 5% CO2 incubator. The next day, the medium containing the digested cartilage fragments and liberated chondrocytes is transferred to a 15 ml centrifuge tube and the cells are collected by centrifugation and washed twice and resuspended in Ham's F-12 medium. The cells are then plated into 24-well tissue culture plates (2×10^5 cells/well) and incubated at 37° C. until confluent (usually 4-6 days).
Stimulation of chondrocytes and drug treatment
The confluent chondrocytes are rinsed twice with serum-free Ham's F-12 medium and 1 ml is added to each well. Fifty μl of purified human IL 1 (100 Units/ml; Genzyme Corporation, Boston, MA) is then added to stimulate these cells to secrete neutral protease. To measure drug effects, the cells are treated with test compound 10 minutes prior to additon of IL 1. The standard screening dose is 10 μM. Twenty-four hours after IL 1 stimulation, supernatant fluids are collected and assayed for neutral protease activity.
The neutral protease activity of chondrocyte supernatant fluids is determined by their ability to degrade an insoluble protease substrate, azocoll (Sigma). Supernatants are treated for 10 minutes at room temperature with 350 μM p-aminophenylmurcuric acetate to activate the latent enzyme. Three hundred μl of supernatant is then mixed with 500 μl of a 20 mg/ml suspension of azocoll and incubated at 37° C. for 18-24 hours with gentle rocking. The mixtures are centrifuged and the amount of substrate hydrolyzed is determined by measuring the absorbance of the supernatant at 520 nm.
Drug effects are calculated as the % change in enzyme activity (absorbance)by supernatants from drug-treated chondrocytes relative to enzyme activity of supernatants from vehicle-treated chondrocytes as follows:
% Inhibition of Protease Secretion= [formula]

Structure (SMILES) | inhibition at 0.1 µM [1] | inhibition at 1 µM [1] | inhibition at 10 µM [2] | inhibition at 5 µM [1]
O=C(O)C1CCc2nc3cc(Cl)ccc3c(NNc3ccccc3)c2C1 (stereo not shown) [Example 12, 6-Chloro-1,2,3,4-tetrahydro-9-(2-phenylhydrazino)-2-acridinecarboxylic acid hemihydrate] | 57% | 61% | 68% | –
Clc1ccc2c(NNc3ccccc3)c3c(nc2c1)CCSC3 [Example 1B, 7-Chloro-3,4-dihydro-10-(2-phenylhydrazino)-1H-thiopyrano[4,3-b]quinoline] | 67% | 94% | 98 ± 1% | 93 ± 5%
O=S1(=O)CCc2nc3cc(Cl)ccc3c(NNc3ccccc3)c2C1 [Example 8, 7-Chloro-3,4-dihydro-10-(2-phenylhydrazino)-1H-thiopyrano[4,3-b]quinoline 2,2-dioxide] | – | 3% | 16% | 37%
c1ccc(NNc2c3c(nc4ccccc24)CCSC3)cc1 [Example 5, 3,4-Dihydro-10-(2-phenylhydrazino)-1H-thiopyrano[4,3-b]quinoline, three-quarters hydrate] | – | 37% | 79 ± 14% | 55 ± 22%
CC1CCc2nc3cc(Cl)ccc3c(Cl)c2C1 (stereo not shown) [Example 2A, 6,9-Dichloro-1,2,3,4-tetrahydro-2-methylacridine, quarter hydrate] | – | – | 34 ± 26% | –
CC1CCc2nc3cc(Cl)ccc3c(NNc3ccccc3)c2C1 (stereo not shown) [Example 2B, 6-Chloro-1,2,3,4-tetrahydro-2-methyl-9-(2-phenylhydrazino)acridine] | – | 36% | 85 ± 6% | –
Clc1c2c(nc3ccccc13)CCSC2 [Example 4, 10-Chloro-3,4-dihydro-1H-thiopyrano[4,3-b]quinoline] | – | 38% | 43% | 46%
Clc1ccc2c(NNc3ccccc3)c3c(nc2c1)CCC(c1ccccc1)C3 (stereo not shown) [Example 3B, 6-Chloro-1,2,3,4-tetrahydro-2-phenyl-9-(2-phenylhydrazino)acridine] | – | 27% | 81 ± 2% | –
O=C(O)C1CCc2nc3cc(Cl)ccc3c(Cl)c2C1 (stereo not shown) [Example 11, 6,9-Dichloro-1,2,3,4-tetrahydro-2-acridinecarboxylic acid] | 58% | 50% | 88% | –
CCOC(=O)C1CCc2nc3cc(Cl)ccc3c(NNc3ccccc3)c2C1 (stereo not shown) [Example 10, 6-Chloro-1,2,3,4-tetrahydro-9-(2-phenylhydrazino)-2-acridinecarboxylic acid ethyl ester] | 70% | 91% | 96% | –
COC(=O)C1CCc2nc3cc(Cl)ccc3c(Cl)c2C1 (stereo not shown) [Example 9, 6,9-Dichloro-1,2,3,4-tetrahydro-2-acridinecarboxylic acid methyl ester] | – | 30% | 58% | 53%
O=S1(=O)CCc2nc3cc(Cl)ccc3c(Cl)c2C1 [Example 7, 7,10-Dichloro-3,4-dihydro-1H-thiopyrano[4,3-b]quinoline 2,2-dioxide] | – | 10% | 25% | 26%
Clc1ccc2c(Cl)c3c(nc2c1)CCC(c1ccccc1)C3 (stereo not shown) [Example 3A, 6,9-Dichloro-1,2,3,4-tetrahydro-2-phenylacridine, hemihydrate] | – | – | ≤ 20% | –
Clc1ccc2c(Cl)c3c(nc2c1)CCSC3 [Example 1A, 7,10-Dichloro-3,4-dihydro-1H-thiopyrano[4,3-b]quinoline] | – | – | 35 ± 11% | –
O=S1(=O)CCc2nc3ccccc3c(Cl)c2C1 [Example 6, 10-Chloro-3,4-dihydro-1H-thiopyrano[4,3-b]quinoline 2,2-dioxide] | – | – | 32% | 19%
